Results published in ChEMBL document CHEMBL4043214, “Design, synthesis, and SAR study of 3-(benzo[d][1,3]dioxol-5-yl)-N-benzylpropanamide as novel potent synergists against fluconazole-resistant Candida albicans” (2017).

What was measured:
Assay type in all cases: functional
[1] = system: Candida albicans; experiment: Potentiation of fluconazole-induced anti-fungal activity against fluconazole-resistant Candida albicans isolate 100 at 2 ug/ml by checkerboard microdilution assay
[2] = system: Candida albicans; experiment: Synergistic anti-fungal activity against fluconazole-resistant Candida albicans isolate 103 in presence of fluconazole by two-fold dilution method
[3] = system: Candida albicans; experiment: Anti-fungal activity against fluconazole-resistant Candida albicans isolate 103 by microbroth dilution method
[4] = system: Candida albicans; experiment: Potentiation of fluconazole-induced anti-fungal activity against fluconazole-resistant Candida albicans isolate 103 assessed as fluconazole MIC80 at 1 ug/ml by checkerboard microdilution assay
[5] = system: Candida albicans; experiment: Potentiation of fluconazole-induced anti-fungal activity against fluconazole-resistant Candida albicans isolate 100 at 8 ug/ml by checkerboard microdilution assay
[6] = system: Candida albicans; experiment: Potentiation of fluconazole-induced anti-fungal activity against fluconazole-resistant Candida albicans isolate 100 at 4 ug/ml by checkerboard microdilution assay
[7] = system: Candida albicans; experiment: Potentiation of fluconazole-induced anti-fungal activity against fluconazole-resistant Candida albicans isolate 103 by two-fold dilution method
[8] = system: Candida albicans; experiment: Potentiation of fluconazole-induced anti-fungal activity against fluconazole-resistant Candida albicans isolate 103 assessed as fluconazole MIC80 at 8 ug/ml by checkerboard microdilution assay
[9] = system: Candida albicans; experiment: Potentiation of fluconazole-induced anti-fungal activity against fluconazole-resistant Candida albicans isolate 103 assessed as fluconazole MIC80 at 4 ug/ml by checkerboard microdilution assay
[10] = system: Candida albicans; experiment: Potentiation of fluconazole-induced anti-fungal activity against fluconazole-resistant Candida albicans isolate 103 at 2 ug/ml by checkerboard microdilution assay
[11] = system: Candida albicans; experiment: Potentiation of fluconazole-induced anti-fungal activity against fluconazole-resistant Candida albicans isolate 103 at 8 ug/ml by checkerboard microdilution assay
[12] = system: Candida albicans; experiment: Potentiation of fluconazole-induced anti-fungal activity against fluconazole-resistant Candida albicans isolate 100 at 1 ug/ml by checkerboard microdilution assay
[13] = system: Candida albicans; experiment: Potentiation of fluconazole-induced anti-fungal activity against fluconazole-resistant Candida albicans isolate 100 by two-fold dilution method
[14] = system: Candida albicans; experiment: Potentiation of fluconazole-induced anti-fungal activity against fluconazole-resistant Candida albicans isolate 100 assessed as fluconazole MIC80 at 1 ug/ml by checkerboard microdilution assay
[15] = system: Candida albicans; experiment: Potentiation of fluconazole-induced anti-fungal activity against fluconazole-resistant Candida albicans isolate 100 assessed as fluconazole MIC80 at 2 ug/ml by checkerboard microdilution assay
[16] = system: Candida albicans; experiment: Potentiation of fluconazole-induced anti-fungal activity against fluconazole-resistant Candida albicans isolate 103 assessed as fluconazole MIC80 at 2 ug/ml by checkerboard microdilution assay
[17] = system: Candida albicans; experiment: Anti-fungal activity against fluconazole-resistant Candida albicans isolate 100 by microbroth dilution method
[18] = system: Candida albicans; experiment: Potentiation of fluconazole-induced anti-fungal activity against fluconazole-resistant Candida albicans isolate 100 assessed as fluconazole MIC80 at 4 ug/ml by checkerboard microdilution assay
[19] = system: Candida albicans; experiment: Synergistic anti-fungal activity against fluconazole-resistant Candida albicans isolate 100 in presence of fluconazole by two-fold dilution method
[20] = system: Candida albicans; experiment: Potentiation of fluconazole-induced anti-fungal activity against fluconazole-resistant Candida albicans isolate 100 assessed as fluconazole MIC80 at 8 ug/ml by checkerboard microdilution assay
[21] = system: Candida albicans; experiment: Potentiation of fluconazole-induced anti-fungal activity against fluconazole-resistant Candida albicans isolate 103 at 1 ug/ml by checkerboard microdilution assay
[22] = system: Candida albicans; experiment: Potentiation of fluconazole-induced anti-fungal activity against fluconazole-resistant Candida albicans isolate 103 at 4 ug/ml by checkerboard microdilution assay

COc1ccc2cc3[n+](cc2c1OC)CCc1cc2c(cc1-3)OCO2 [BERBERINE] was tested, and the “fractional inhibitory concentration index (FICI)” value [1] was 0.039, the MIC80 [2] was 1 µg/mL and the MIC80 [3] was 32 µg/mL. The MIC80 [4] was 2 µg/mL, the “fractional inhibitory concentration index (FICI)” value [5] was 0.093 and the “fractional inhibitory concentration index (FICI)” value [6] was 0.063. For the same compound, the “fractional inhibitory concentration index (FICI)” value [7] was 0.093, the MIC80 [8] was 1 µg/mL and the MIC80 [9] was 1 µg/mL. The “fractional inhibitory concentration index (FICI)” value [10] was 0.039, the “fractional inhibitory concentration index (FICI)” value [11] was 0.093 and the “fractional inhibitory concentration index (FICI)” value [12] was 0.07. The “fractional inhibitory concentration index (FICI)” value [13] was 0.093, the MIC80 [14] was 2 µg/mL and the MIC80 [15] was 1 µg/mL. It also gave an MIC80 [16] of 1 µg/mL, an MIC80 [17] of 32 µg/mL and an MIC80 [18] of 1 µg/mL. For the same compound, the MIC80 [19] was 1 µg/mL, the MIC80 [20] was 1 µg/mL and the “fractional inhibitory concentration index (FICI)” value [21] was 0.07. For the same compound, the “fractional inhibitory concentration index (FICI)” value [22] was 0.063.
